Test results reported in patent publication US10487117B2, “Antimicrobial peptide for nosocomial infections” (priority 2015, dated 2019).
Values after ≈ are worked out from the molar mass of the structure shown. Residues, ends and D or L forms follow the SMILES beside them.

How the values were obtained:
Format in all cases: cell-based, Pseudomonas aeruginosa
planktonic P. aeruginosa = assay: Minimum inhibitory concentration (MIC100) assay; details: 4 h at 37° C., mean ± SEM, max 50 μM
Method: First the peptide ability to inhibit the proliferation of P. aeruginosa cells was assessed by determining the minimum inhibitory concentration (MIC100).
MIC100 of each protein/peptide was determined as described (Torrent M. et al. 2012). Bacteria were incubated at 37° C. overnight in Luria-Bertani broth (LB) and diluted to give approximately 5×10^5 CFU/mL. In each assay protein/peptide serially diluted from 50 to 0.2 μM in 10 mM sodium phosphate, 0.1 M NaCl, buffer pH 7.5 were added to 100 μl bacteria dilution and incubated for 4 h at 37° C. Subsequently, samples were plated onto Petri dishes and incubated at 37° C. overnight. MIC100 values were determined as function of the total growth inhibition by the protein and peptides, from two independent experiments performed in triplicate.

[1] = Biofilm cell mortality, BacTiter-Glo luminescent assay; details: 24 h formed biofilm; 4 h at 37° C.; 10% Triton X-100 as maximum reference; N.D. = not detected at 50 μM; read-out: Biofilm cell mortality (%max)
Method: Bacterial viability was assayed using the BacTiter-Glo™ microbial cell viability kit. Briefly, protein/peptides were dissolved in 10 mM sodium phosphate, 0.1M buffer, pH 7.5, serially diluted from 50 to 0.1 μM and tested in a 96-well microtiter plate containing P. aeruginosa planktonic (OD600˜0.2) or 24 h formed biofilm for 4 h at 37° C. Fifty microliters of BacTiter-Glo™ reagent was added to each well according to the manufacturer's instructions and incubated at room temperature for 15 min. Luminescence was read on a Victor3 plate reader with a 3-s integration time. Fifty percent (ED50) and total inhibitory concentrations were calculated by fitting the data to a dose-response curve.
As a first approach, the biofilm cell viability was monitored using the BacTiter-Glo™ luminescent assay. Therefore, the antimicrobial action of the studied AMPs was determined on already established P. aeruginosa biolfilms (FIG. 1 and Table 6). […] However, for all the active peptides, the concentrations needed to produce an equivalent effect in biofilms were between 2 to 10 times higher than in planktonic cultures. […] At the same time, we applied the crystal violet technique to assess the peptide ability to disperse pre-established P. aeruginosa biofilms.
Biofilm formation assay was modified from the previously described protocol (Huedo P. et al. 2014). Briefly, overnight cultures of P. aeruginosa were centrifuged at 5000×g for 5 min, washed and adjusted to an OD600=0.1 in tryptic soy medium (TSB). Two hundred microliters of the bacterial suspension were dispensed in each well of a polystyrene 96-well microtiter plate (Greiner Bio-one, France). The plate was incubated at 37° C. on an orbital shaker (30 rpm). The media was exchanged with fresh pre-warmed TSB after 4 h, in order to remove the non-attached bacteria. After 24 h incubation, the formation of biofilm was then evaluated using the crystal violet staining technique (Stepanovic S. et al. 2000). Briefly, the plates were washed three times with PBS, fixed at 60° C. for 1 h, and stained for 15 min with 200 μl of 0.1% crystal violet. After the dye was discarded, plates were rinsed in PBS and allowed to dry for 30 min at 37° C. Crystal violet was dissolved in 250 μl of 95% ethanol for 15 min, and the OD570 of the extracted dye was measured using a Victor3 plate reader (Perkin-Elmer, Waltham, Mass.).

[2] = system: established P. aeruginosa biofilms; assay: DiSC3(5) membrane depolarization assay on biofilm; details: maximum percentage at final incubation time, 10% Triton X-100 reference
Method: Membrane depolarization was followed using the method described earlier (Torrent M. et al. 2008). Briefly, bacterial cells were grown at 37° C. to an OD600=0.2, centrifuged at 5000×g for 7 min, washed with 5 mM Hepes at pH 7.2 containing 20 mM glucose, and resuspended in 5 mM Hepes-KOH, 20 mM glucose, and 100 mM KCl at pH 7.2 to an OD600=0.05 and 200 μl were transferred to a microtiter plate for planktonic assays. For biofilm assay, 24 h formed P. aeruginosa biofilm in a 96-well microtiter plate were washed three times with sterile PBS. Afterwards P. aeruginosa biofilms were washed with 5 mM Hepes at pH 7.2 containing 20 mM glucose, and rinsed in 5 mM Hepes-KOH, 20 mM glucose, and 100 mM KCl at pH 7.2. In both cases, DiSC3(5) was added to a final concentration of 0.4 μM and changes in the fluorescence were continuously recorded after addition of peptides at 10 μM in a Victor3 plate reader. A maximum reference value for total depolarization is calculated for Triton X-100 at 10%. Alternatively, changes in the fluorescence were continuously recorded after addition of a serially diluted protein/peptides from 50 to 0.1 μM. The peptide concentration required to achieve half of total and total membrane depolarization after 40 min incubation time was estimated from nonlinear regression analysis as previously described (Torrent M. et al. 2010)
(§1) Thereupon, the antimicrobial mechanism of action of the RNase 3 derived peptide on P. aeruginosa biofilms was further characterized with the depolarization and permeabilization assays. As applied for the P. aeruginosa planktonic culture, the fluorescent DisC3(5) assay was also used here in order to monitor the depolarization activity of the studied protein and peptides against established biofilms. Therefore, we have measured the half depolarization action (ED50), and the total depolarization activity expressed as a percentage (Table 7). […] Similar results were obtained for the Sytox Green permeabilization assay, where the total permeabilization effect was hindered for all the AMPs tested, and between two to ten times higher concentrations were required to achieve half of the biofilm cell permeabilizing effect in comparison to the planktonic cells.

[3] = system: established P. aeruginosa biofilms; assay: SYTOX Green membrane permeabilization assay on biofilm; details: maximum percentage at final incubation time, 10% Triton X-100 reference
Method: Membrane permeabilization was followed using the method SYTOX Green Fluorescence membrane permeabilization assay. In the planktonic assay, bacterial cells were grown at 37° C. to an OD600=0.2, centrifuged at 5000×g for 5 min, and resuspended in 1×PBS to an OD600=0.2. An aliquot of 200 μl was then transferred to a microtiter plate. For biofilm assay, 24 h formed P. aeruginosa biofilm in a 96-well microtiter plate were washed three times with sterile PBS. SYTOX Green was added to a final concentration of 1 μM and incubated 15 min in darkness. Changes in the fluorescence were continuously recorded after addition of a serially diluted protein/peptides from 50 to 0.1 μM in a Victor3 plate reader. The peptide concentration required to achieve half of total and total membrane permeabilization achieved after 40 min was estimated from nonlinear regression analysis as previously described (Pulido D. et al. Antimicrob Agents Chemother 2013). A maximum reference value was taken for Triton X-100 at 10%.
as §1

| SMILES | MIC100 (planktonic P. aeruginosa) [µM] | mortality [1] [%] | Depolarization Mean % ± SEM [2] [%] | Permeabilization Mean % ± SEM [3] [%] |
| --- | --- | --- | --- | --- |
| CC[C@H](C)[C@H](NC(=O)CNC(=O)[C@@H](NC(=O)[C@H](CCCCN)NC(=O)[C@H](CCCCN)NC(=O)[C@H](Cc1ccccc1)NC(=O)[C@H](CC(C)C)NC(=O)[C@H](CCCCN)NC(=O)[C@H](Cc1c[nH]c2ccccc12)NC(=O)[C@@H](N)CCCCN)[C@@H](C)CC)C(=O)NCC(=O)N[C@@H](C)C(=O)N[C@H](C(=O)N[C@@H](CC(C)C)C(=O)N[C@@H](CCCCN)C(=O)N[C@H](C(=O)N[C@@H](CC(C)C)C(=O)N[C@H](C(=O)N[C@H](C(=O)NCC(=O)N[C@@H](CC(C)C)C(=O)N1CCC[C@H]1C(=O)N[C@@H](C)C(=O)N[C@@H](CC(C)C)C(=O)N[C@H](C(=O)N[C@@H](CO)C(N)=O)[C@@H](C)CC)[C@@H](C)O)[C@@H](C)O)C(C)C)C(C)C [CA-M] | 6.00 ± 0.05 (≈ 16.8 µg/mL) | 54.3 ± 5.51 | 39.09 ± 2.46 | 23.01 ± 1.13 |
| CC[C@H](C)[C@H](NC(=O)[C@H](CCC(N)=O)NC(=O)CN)C(=O)N[C@H](C(=O)N[C@@H](CC(N)=O)C(=O)N[C@@H](CC(C)C)C(=O)N[C@@H](CCCCN)C(=O)N[C@@H](C)C(=O)N[C@@H](CO)C(=O)N[C@@H](CC(C)C)C(=O)N[C@@H](CC(=O)O)C(=O)N[C@@H](CC(C)C)C(=O)N[C@@H](CC(C)C)C(N)=O)[C@@H](C)CC [GL-13, GQIINLKASLDLL-NH2] (H-GQIINLKASLDLL-NH2) | >50 | – | – | – |
| CC[C@H](C)[C@H](NC(=O)[C@H](CCCCN)NC(=O)[C@H](CCC(=O)O)NC(=O)[C@H](CCCCN)NC(=O)[C@H](CO)NC(=O)[C@H](CCCCN)NC(=O)[C@H](CCCNC(=N)N)NC(=O)[C@H](Cc1ccccc1)NC(=O)[C@H](Cc1ccccc1)NC(=O)[C@H](CC(=O)O)NC(=O)CNC(=O)[C@H](CC(C)C)NC(=O)[C@@H](N)CC(C)C)C(=O)NCC(=O)N[C@@H](CCCCN)C(=O)N[C@@H](CCC(=O)O)C(=O)N[C@@H](Cc1ccccc1)C(=O)N[C@@H](CCCCN)C(=O)N[C@@H](CCCNC(=N)N)C(=O)N[C@H](C(=O)N[C@H](C(=O)N[C@@H](CCC(N)=O)C(=O)N[C@@H](CCCNC(=N)N)C(=O)N[C@H](C(=O)N[C@@H](CCCCN)C(=O)N[C@@H](CC(=O)O)C(=O)N[C@@H](Cc1ccccc1)C(=O)N[C@@H](CC(C)C)C(=O)N[C@@H](CCCNC(=N)N)C(=O)N[C@@H](CC(N)=O)C(=O)N[C@@H](CC(C)C)C(=O)N[C@H](C(=O)N1CCC[C@H]1C(=O)N[C@@H](CCCNC(=N)N)C(=O)N[C@H](C(=O)N[C@@H](CCC(=O)O)C(=O)N[C@@H](CO)C(N)=O)[C@@H](C)O)C(C)C)[C@@H](C)CC)C(C)C)[C@@H](C)CC [LL-37] | 6.00 ± 0.05 (≈ 27 µg/mL) | 64 ± 3.33 | 31.85 ± 1.15 | 24.21 ± 3.71 |
